From ChEMBL document CHEMBL5370641, “Structure-Based Optimization and Biological Evaluation of Potent and Selective MMP-7 Inhibitors for Kidney Fibrosis” (J Med Chem, 2023)
Calls of active or inactive are those of the source. The calls are words filed in the database; no cut-off is given here. Numbered stars: 1 amine (or outer) side, 2 acyl side, 3 side chain; on linkers, the order of the positions; unused ones are H or OH. Square brackets hold non-standard residues; d marks the D form. Peptide text beside a SMILES is read from it. * marks the point of attachment. Benzenesulfonyl(4-Cl,3-CF3) = O=S(=O)(c1ccc(Cl)c(C(F)(F)F)c1)*; γGlu = O=C(O)[C@H](CCC(=O)[*:2])N[*:1]; Tle = CC(C)(C)[C@H](N)C(=O)O; β3hP = O=C(O)C[C@@H]1CCCN1

Tests used:
Matrilysin = biological target: T1, Matrilysin (Homo sapiens, UniProt P09237); experiment: Inhibition of recombinant human MMP7 using MOCAc-Pro-Leu-Gly-Leu-A2pr-(Dnp)-Ala-Arg-NH2 as substrate preincubated with compound for 15 mins followed by substrate addition and measured after 2 hrs by fluorescence based analysis
T1 sequence (P09237 whole entry): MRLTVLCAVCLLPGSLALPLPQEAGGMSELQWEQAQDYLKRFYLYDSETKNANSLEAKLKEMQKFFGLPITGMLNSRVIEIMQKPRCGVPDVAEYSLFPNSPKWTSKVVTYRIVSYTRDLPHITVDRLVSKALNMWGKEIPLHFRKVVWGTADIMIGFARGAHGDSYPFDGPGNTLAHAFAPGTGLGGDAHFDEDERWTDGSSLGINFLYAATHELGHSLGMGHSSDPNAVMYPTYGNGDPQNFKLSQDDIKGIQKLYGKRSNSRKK

[1] = biological target: Matrix metalloproteinase-14 (Homo sapiens, UniProt P50281); experiment: Inhibition of recombinant human MMP14 using MOCAc-Lys-Pro-Leu-Gly-Leu-A2pr(Dnp)-Ala-Arg-NH2 as substrate preincubated with compound for 15 mins followed by substrate addition and measured after 1 hrs by fluorescence based analysis
Mus musculus = experiment: Antifibrotic activity against unilateral ureteric obstruction induced C57BL/6J mouse model of renal fibrosis assessed as reduction in renal collagen at 0.1 mg/ml preadministered with compound via drinking water for 7 days followed by UUO surgery and measured after 7 days; format: functional, organism-based; conditions: route po, time 14.0 day
Homo sapiens [2] = organism: Homo sapiens; experiment: Selectivity ratio of IC50 for inhibition of recombinant human MMP9 to IC50 for inhibition of recombinant human MMP7
[3] = biological target: 72 kDa type IV collagenase (Homo sapiens, UniProt P08253); experiment: Inhibition of recombinant human MMP2 using MOCAc-Pro-Leu-Gly-Leu-A2pr-(Dnp)-Ala-Arg-NH2 as substrate preincubated with compound for 15 mins followed by substrate addition and measured after 1 hrs by fluorescence based analysis
72 kDa type IV collagenase, sequence (P08253 whole entry): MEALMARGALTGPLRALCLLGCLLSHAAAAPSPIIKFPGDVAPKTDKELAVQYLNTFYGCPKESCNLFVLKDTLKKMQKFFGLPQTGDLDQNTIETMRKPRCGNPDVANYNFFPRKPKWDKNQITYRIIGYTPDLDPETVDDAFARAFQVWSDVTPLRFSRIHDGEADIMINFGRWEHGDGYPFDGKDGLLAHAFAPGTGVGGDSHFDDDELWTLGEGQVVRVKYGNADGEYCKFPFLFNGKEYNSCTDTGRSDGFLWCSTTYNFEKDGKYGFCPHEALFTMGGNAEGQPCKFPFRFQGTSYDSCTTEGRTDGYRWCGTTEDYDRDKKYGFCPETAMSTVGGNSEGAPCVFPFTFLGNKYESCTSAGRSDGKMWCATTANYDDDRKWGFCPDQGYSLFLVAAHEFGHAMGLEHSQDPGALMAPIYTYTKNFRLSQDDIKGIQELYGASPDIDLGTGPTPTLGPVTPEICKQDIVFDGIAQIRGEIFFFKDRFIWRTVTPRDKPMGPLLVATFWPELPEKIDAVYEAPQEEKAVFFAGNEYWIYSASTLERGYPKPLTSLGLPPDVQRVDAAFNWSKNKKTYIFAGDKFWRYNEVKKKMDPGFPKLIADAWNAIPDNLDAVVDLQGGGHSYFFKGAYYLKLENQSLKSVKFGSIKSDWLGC

Homo sapiens [4] = organism: Homo sapiens; experiment: Selectivity ratio of IC50 for inhibition of recombinant human MMP12 to IC50 for inhibition of recombinant human MMP7
Homo sapiens [5] = organism: Homo sapiens; experiment: Selectivity ratio of IC50 for inhibition of recombinant human MMP1 to IC50 for inhibition of recombinant human MMP7
Neutrophil collagenase = Neutrophil collagenase (Homo sapiens, UniProt P22894); experiment: Inhibition of recombinant human MMP8 using MOCAc-Pro-Leu-Gly-Leu-A2pr-(Dnp)-Ala-Arg-NH2 as substrate preincubated with compound for 15 mins followed by substrate addition and measured after 1 hrs by fluorescence based analysis
Neutrophil collagenase, sequence (P22894 whole entry): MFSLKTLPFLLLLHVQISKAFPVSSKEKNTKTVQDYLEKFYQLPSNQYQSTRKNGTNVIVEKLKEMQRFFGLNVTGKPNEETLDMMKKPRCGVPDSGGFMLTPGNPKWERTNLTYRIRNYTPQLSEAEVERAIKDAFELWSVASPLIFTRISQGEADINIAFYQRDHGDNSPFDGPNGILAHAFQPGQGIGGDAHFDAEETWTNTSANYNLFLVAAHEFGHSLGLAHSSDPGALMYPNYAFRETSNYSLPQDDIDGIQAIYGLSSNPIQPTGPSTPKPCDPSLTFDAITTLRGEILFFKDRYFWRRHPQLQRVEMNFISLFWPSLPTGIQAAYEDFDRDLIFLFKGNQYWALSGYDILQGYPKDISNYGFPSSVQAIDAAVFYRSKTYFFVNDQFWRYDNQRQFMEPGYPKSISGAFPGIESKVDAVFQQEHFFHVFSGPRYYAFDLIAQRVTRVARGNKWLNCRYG

Homo sapiens [6] = organism: Homo sapiens; experiment: Selectivity ratio of IC50 for inhibition of recombinant human MMP3 to IC50 for inhibition of recombinant human MMP7
[7] = biological target: Matrix metalloproteinase-9 (Homo sapiens, UniProt P14780); experiment: Inhibition of recombinant human MMP9 using MOCAc-Pro-Leu-Gly-Leu-A2pr-(Dnp)-Ala-Arg-NH2 as substrate preincubated with compound for 15 mins followed by substrate addition and measured after 1 hrs by fluorescence based analysis
Matrix metalloproteinase-9, sequence (P14780 whole entry): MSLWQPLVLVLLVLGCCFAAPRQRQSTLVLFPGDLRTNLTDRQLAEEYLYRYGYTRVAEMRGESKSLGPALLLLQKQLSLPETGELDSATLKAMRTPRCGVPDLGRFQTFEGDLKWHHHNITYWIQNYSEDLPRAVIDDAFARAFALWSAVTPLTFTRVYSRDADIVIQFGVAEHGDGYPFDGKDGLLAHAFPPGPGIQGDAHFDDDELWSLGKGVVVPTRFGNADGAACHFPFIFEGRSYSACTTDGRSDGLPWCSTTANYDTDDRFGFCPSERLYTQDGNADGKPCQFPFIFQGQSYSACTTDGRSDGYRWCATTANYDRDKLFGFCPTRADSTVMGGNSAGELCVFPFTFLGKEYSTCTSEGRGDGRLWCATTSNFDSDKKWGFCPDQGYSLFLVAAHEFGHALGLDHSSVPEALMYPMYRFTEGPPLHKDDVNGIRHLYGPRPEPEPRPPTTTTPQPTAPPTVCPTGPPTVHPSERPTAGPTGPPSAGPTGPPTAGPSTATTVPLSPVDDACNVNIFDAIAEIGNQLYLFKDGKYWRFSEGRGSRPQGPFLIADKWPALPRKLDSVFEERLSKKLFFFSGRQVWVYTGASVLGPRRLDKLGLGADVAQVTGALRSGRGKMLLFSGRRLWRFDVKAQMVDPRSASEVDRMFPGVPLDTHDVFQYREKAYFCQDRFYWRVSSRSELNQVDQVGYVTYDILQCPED

Homo sapiens [8] = organism: Homo sapiens; experiment: Selectivity ratio of IC50 for inhibition of recombinant human MMP2 to IC50 for inhibition of recombinant human MMP7
Homo sapiens [9] = organism: Homo sapiens; experiment: Selectivity ratio of IC50 for inhibition of recombinant human MMP8 to IC50 for inhibition of recombinant human MMP7
Homo sapiens [10] = organism: Homo sapiens; experiment: Selectivity ratio of IC50 for inhibition of recombinant human MMP13 to IC50 for inhibition of recombinant human MMP7
Interstitial collagenase = biological target: T2, Interstitial collagenase (Homo sapiens, UniProt P03956); experiment: Inhibition of recombinant human MMP1 using MOCAc-Lys-Pro-Leu-Gly-Leu-A2pr(Dnp)-Ala-Arg-NH2 as substrate preincubated with compound for 15 mins followed by substrate addition and measured after 1 hrs by fluorescence based analysis
T2 sequence (P03956 whole entry): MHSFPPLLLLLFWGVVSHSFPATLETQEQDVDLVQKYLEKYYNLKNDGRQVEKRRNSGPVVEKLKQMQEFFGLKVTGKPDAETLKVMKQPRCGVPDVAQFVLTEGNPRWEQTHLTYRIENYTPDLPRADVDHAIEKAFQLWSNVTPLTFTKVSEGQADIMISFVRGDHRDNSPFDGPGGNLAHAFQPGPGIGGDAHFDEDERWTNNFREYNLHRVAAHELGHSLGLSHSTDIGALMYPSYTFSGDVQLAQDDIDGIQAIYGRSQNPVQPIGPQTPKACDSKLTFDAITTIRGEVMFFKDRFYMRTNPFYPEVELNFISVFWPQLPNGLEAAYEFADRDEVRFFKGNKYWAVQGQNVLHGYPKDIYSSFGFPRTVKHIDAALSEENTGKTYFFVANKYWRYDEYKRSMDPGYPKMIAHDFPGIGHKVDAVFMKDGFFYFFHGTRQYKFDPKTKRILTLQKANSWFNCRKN

Homo sapiens [11] = organism: Homo sapiens; experiment: Selectivity ratio of IC50 for inhibition of recombinant human MMP14 to IC50 for inhibition of recombinant human MMP7
[12] = biological target: Macrophage metalloelastase (Homo sapiens, UniProt P39900); experiment: Inhibition of recombinant human MMP12 using MOCAc-Pro-Leu-Gly-Leu-A2pr-(Dnp)-Ala-Arg-NH2 as substrate preincubated with compound for 15 mins followed by substrate addition and measured after 1 hrs by fluorescence based analysis
Macrophage metalloelastase, sequence (P39900 whole entry): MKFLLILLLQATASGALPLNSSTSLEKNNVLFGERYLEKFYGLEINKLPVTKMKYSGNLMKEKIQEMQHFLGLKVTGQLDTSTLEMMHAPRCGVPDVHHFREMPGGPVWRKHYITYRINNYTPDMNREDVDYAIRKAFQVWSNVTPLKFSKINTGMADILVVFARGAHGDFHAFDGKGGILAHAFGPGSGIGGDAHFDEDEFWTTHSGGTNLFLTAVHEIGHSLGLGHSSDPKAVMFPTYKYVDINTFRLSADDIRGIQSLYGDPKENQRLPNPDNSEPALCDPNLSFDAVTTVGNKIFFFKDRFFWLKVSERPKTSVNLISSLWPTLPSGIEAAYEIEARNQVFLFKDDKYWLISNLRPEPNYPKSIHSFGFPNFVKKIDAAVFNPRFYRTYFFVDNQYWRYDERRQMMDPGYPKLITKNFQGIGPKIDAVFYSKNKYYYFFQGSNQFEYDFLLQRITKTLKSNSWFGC

Stromelysin-1 = Stromelysin-1 (Homo sapiens, UniProt P08254); experiment: Inhibition of recombinant human MMP3 using MOCAc-Arg-Pro-Lys-Pro-Val-Glu-Nva-Trp-Arg-Lys(Dnp)-NH2 as substrate preincubated with compound for 15 mins followed by substrate addition and measured after 1 hrs by fluorescence based analysis
Stromelysin-1, sequence (P08254 whole entry): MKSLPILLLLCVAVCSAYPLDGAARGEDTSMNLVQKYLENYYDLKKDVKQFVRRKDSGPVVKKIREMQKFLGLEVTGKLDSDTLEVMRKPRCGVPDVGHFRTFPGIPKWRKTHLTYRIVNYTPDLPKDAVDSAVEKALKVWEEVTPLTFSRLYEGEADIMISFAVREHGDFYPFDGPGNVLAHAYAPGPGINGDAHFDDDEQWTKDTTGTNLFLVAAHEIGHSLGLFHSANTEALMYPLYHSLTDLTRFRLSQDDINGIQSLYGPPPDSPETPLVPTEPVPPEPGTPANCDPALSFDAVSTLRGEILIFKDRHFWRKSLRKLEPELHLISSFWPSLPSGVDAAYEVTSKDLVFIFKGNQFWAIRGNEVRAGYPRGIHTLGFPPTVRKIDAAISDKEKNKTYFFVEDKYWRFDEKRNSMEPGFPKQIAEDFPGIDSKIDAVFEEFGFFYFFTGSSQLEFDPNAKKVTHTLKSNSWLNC

Collagenase 3 = Collagenase 3 (Homo sapiens, UniProt P45452); experiment: Inhibition of recombinant human MMP13 using MOCAc-Pro-Leu-Gly-Leu-A2pr-(Dnp)-Ala-Arg-NH2 as substrate preincubated with compound for 15 mins followed by substrate addition and measured after 1 hrs by fluorescence based analysis

IC50 (Matrilysin) | IC50 [1] | Structure (SMILES) | other results
32 nM | 8300 nM | CC(C)(C)[C@H](NC(=O)[C@H](Cn1ccnn1)NC(=O)CNC(=O)CC[C@H](NS(=O)(=O)c1ccc(Cl)c(C(F)(F)F)c1)C(=O)O)C(=O)N1CCC[C@H]1CC(N)=O | 
40 nM | 9300 nM | CC(C)(C)[C@H](NC(=O)[C@H](Cn1cc(C2CC2)nn1)NC(=O)CNC(=O)CC[C@H](NS(=O)(=O)c1ccc(Cl)c(C(F)(F)F)c1)C(=O)O)C(=O)N1CCC[C@H]1CC(N)=O | 
100 nM | 16000 nM | CC(C)c1cn(C[C@H](NC(=O)CNC(=O)CC[C@H](NS(=O)(=O)c2ccc(Cl)c(C(F)(F)F)c2)C(=O)O)C(=O)N[C@H](C(=O)N2CCC[C@H]2CC(N)=O)C(C)(C)C)nn1 | 
23 nM | 46000 nM | CC(C)Cn1cc(-c2ccc(C[C@H](NC(=O)CNC(=O)CC[C@H](NS(=O)(=O)c3ccc(Cl)c(C(F)(F)F)c3)C(=O)O)C(=O)N[C@H](C(=O)N3CCC[C@H]3CC(N)=O)C(C)(C)C)cc2)cn1 | 
6 nM | 8400 nM | CC(C)(C)[C@H](NC(=O)[C@H](Cc1cccnn1)NC(=O)CNC(=O)CC[C@H](NS(=O)(=O)c1ccc(Cl)c(C(F)(F)F)c1)C(=O)O)C(=O)N1CCC[C@H]1CC(N)=O | 
 |  | CCCCc1nc(Cl)c(CO)n1Cc1ccc(-c2ccccc2-c2nnn[nH]2)cc1 | Activity (Mus musculus): Active
13 nM | 3200 nM | CC(C)(C)[C@H](NC(=O)[C@H](Cc1ccccc1)NC(=O)CNC(=O)CC[C@H](NS(=O)(=O)c1ccc(Cl)c(C(F)(F)F)c1)C(=O)O)C(=O)N1CCC[C@H]1CC(N)=O ({Benzenesulfonyl(4-Cl,3-CF3)-γGlu}-GF[Tle][β3hP]-NH2) | 
7.7 nM | 240 nM | CC(C)C[C@H](NC(=O)CNC(=O)CC[C@H](NS(=O)(=O)c1ccc(Cl)c(C(F)(F)F)c1)C(=O)O)C(=O)N[C@H](C(=O)N1CCC[C@H]1CC(N)=O)C(C)(C)C ({Benzenesulfonyl(4-Cl,3-CF3)-γGlu}-GL[Tle][β3hP]-NH2) | Ratio IC50 (Homo sapiens [2]): > 13000; IC50 [3]: 8500 nM; Ratio IC50 (Homo sapiens [4]): 380; Ratio IC50 (Homo sapiens [5]): 12000; IC50 (Neutrophil collagenase): 55000 nM; Ratio IC50 (Homo sapiens [6]): > 13000; IC50 [7]: > 100000 nM; Ratio IC50 (Homo sapiens [8]): 1100; Ratio IC50 (Homo sapiens [9]): 7100; Ratio IC50 (Homo sapiens [10]): > 13000; IC50 (Interstitial collagenase): 92000 nM; Ratio IC50 (Homo sapiens [11]): 31; IC50 [12]: 2900 nM; IC50 (Stromelysin-1): > 100000 nM; IC50 (Collagenase 3): > 100000 nM
14 nM | 2000 nM | COc1ccc(C[C@H](NC(=O)CNC(=O)CC[C@H](NS(=O)(=O)c2ccc(Cl)c(C(F)(F)F)c2)C(=O)O)C(=O)N[C@H](C(=O)N2CCC[C@H]2CC(N)=O)C(C)(C)C)cc1 ({Benzenesulfonyl(4-Cl,3-CF3)-γGlu}-GY(Me)[Tle][β3hP]-NH2) | 
9.6 nM | 2700 nM | CC(C)(C)[C@H](NC(=O)[C@H](Cc1ccc(O)cc1)NC(=O)CNC(=O)CC[C@H](NS(=O)(=O)c1ccc(Cl)c(C(F)(F)F)c1)C(=O)O)C(=O)N1CCC[C@H]1CC(N)=O ({Benzenesulfonyl(4-Cl,3-CF3)-γGlu}-GY[Tle][β3hP]-NH2) | 
